According to US10532980B2, “N-methyl pyrazoles” (Prosetta Antiviral, Inc., priority 2015, dated 2020):

Tested on: Influenza A virus (A/WSN/1933(H1N1))
Assay: microbe, parasite or virus in culture
Type: cell-based
Conditions: MDCK, 24 h with compound, then 2 h drug-free medium

SMILES: Cn1nc(C(C)(C)C)cc1C(=O)NCc1cc(Cl)c2c(c1)OCCCO2 [Compound 45, 3-(tert-butyl)-N-((9-chloro-3,4-dihydro-2H-benzo[b][1,4]dioxepin-7-yl)methyl)-1-methyl-1H-pyrazole-5-carboxamide]
- EC90: 1000 nM

SMILES: COc1ccc(F)c(CNC(=O)c2cc(C(C)(C)C)nn2C)c1OC [Compound 46, 3-(tert-butyl)-N-(6-fluoro-2,3-dimethoxybenzyl)-1-methyl-1H-pyrazole-5-carboxamide]
- EC90: 1000 nM
